Source: PubChem BioAssay (NCI)
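Five concentrations, 48 hours, 96-well plates. The concentration for full growth arrest is given as TGI.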

Legend:
Test in all cases: NCI tumour cell line growth inhibition, 48 h
[1] = system: DU-145 prostate
[2] = system: U251 CNS
[3] = system: MDA-MB-435
[4] = system: SF-268 CNS
[5] = system: 786-0 renal
[6] = system: ACHN renal
[7] = system: SF-295 CNS
[8] = system: NCI-H23 lung
[9] = system: T-47D breast
[10] = system: HCT-15 colon
[11] = system: NCI/ADR-RES ovarian
[12] = system: HCT-116 colon
[13] = system: HS 578T breast
[14] = system: KM12 colon
[15] = system: MOLT-4 leukemia
[16] = system: SW-620 colon
[17] = system: HT29 colon
[18] = system: UACC-62 melanoma
[19] = system: SF-539 CNS
[20] = system: SK-MEL-28 melanoma
[21] = system: HCC-2998 colon
[22] = system: NCI-H226 lung
[23] = system: A498 renal
[24] = system: OVCAR-8 ovarian
[25] = system: SNB-75 CNS
[26] = system: SN12C renal
[27] = system: COLO 205 colon
[28] = system: SK-OV-3 ovarian
[29] = system: HOP-62 NSCLC
[30] = system: SNB-19 CNS
[31] = system: NCI-H460 lung
[32] = system: OVCAR-5 ovarian
[33] = system: MDA-N
[34] = system: RPMI-8226 leukemia
[35] = system: K-562 leukemia
[36] = system: SK-MEL-2 melanoma
[37] = system: UACC-257 melanoma
[38] = system: OVCAR-3 ovarian
[39] = system: UO-31 renal
[40] = system: BT-549 breast
[41] = system: SK-MEL-5 melanoma
[42] = system: OVCAR-4 ovarian
[43] = system: IGROV1 ovarian
[44] = system: RXF 393 renal
[45] = system: A549 NSCLC
[46] = system: EKVX NSCLC
[47] = system: MDA-MB-231 breast
[48] = system: HOP-92 NSCLC
[49] = system: MCF7 breast
[50] = system: TK-10 renal
[51] = system: HL-60(TB) leukemia
[52] = system: M14 melanoma
[53] = system: MALME-3M melanoma
[54] = system: LOX IMVI melanoma
[55] = system: SR leukemia
[56] = system: NCI-H522 lung
[57] = system: CAKI-1 renal

Q: Which TGI [1] does the source give for `O=C1CSC(c2c[nH]c3ccccc23)N1c1ccc(Cl)cc1` (stereo not given) here?
A: > 100 µM

Q: What about the TGI [2] of the same molecule?
A: > 100 µM

Q: And the TGI [3]?
A: > 100 µM

Q: What about the TGI [4] of the same molecule?
A: > 100 µM

Q: What about the TGI [5] of the same molecule?
A: > 100 µM

Q: What about the TGI [6] of the same molecule?
A: > 100 µM

Q: What about the TGI [7] of the same molecule?
A: > 100 µM

Q: What about the TGI [8] of the same molecule?
A: > 100 µM

Q: And the TGI [9]?
A: > 100 µM

Q: What about the TGI [10] of the same molecule?
A: > 100 µM

Q: What about the TGI [11] of the same molecule?
A: > 100 µM

Q: What about the TGI [12] of the same molecule?
A: > 100 µM

Q: And the TGI [13]?
A: > 100 µM

Q: And the TGI [14]?
A: > 100 µM

Q: What about the TGI [15] of the same molecule?
A: > 100 µM

Q: What about the TGI [16] of the same molecule?
A: > 100 µM

Q: What about the TGI [17] of the same molecule?
A: > 100 µM

Q: And the TGI [18]?
A: > 100 µM

Q: And the TGI [19]?
A: > 100 µM

Q: What about the TGI [20] of the same molecule?
A: > 100 µM

Q: What about the TGI [21] of the same molecule?
A: > 100 µM

Q: What about the TGI [22] of the same molecule?
A: > 100 µM

Q: What about the TGI [23] of the same molecule?
A: > 100 µM

Q: What about the TGI [24] of the same molecule?
A: > 100 µM

Q: And the TGI [25]?
A: > 100 µM

Q: And the TGI [26]?
A: > 100 µM

Q: And the TGI [27]?
A: > 100 µM

Q: What about the TGI [28] of the same molecule?
A: > 100 µM

Q: What about the TGI [29] of the same molecule?
A: > 100 µM

Q: And the TGI [30]?
A: > 100 µM

Q: And the TGI [31]?
A: > 100 µM

Q: And the TGI [32]?
A: > 100 µM

Q: What about the TGI [33] of the same molecule?
A: > 100 µM

Q: And the TGI [34]?
A: > 100 µM

Q: What about the TGI [35] of the same molecule?
A: > 100 µM

Q: What about the TGI [36] of the same molecule?
A: > 100 µM

Q: What about the TGI [37] of the same molecule?
A: > 100 µM

Q: And the TGI [38]?
A: > 100 µM

Q: And the TGI [39]?
A: > 100 µM

Q: What about the TGI [40] of the same molecule?
A: > 100 µM

Q: And the TGI [41]?
A: > 100 µM

Q: What about the TGI [42] of the same molecule?
A: > 100 µM

Q: What about the TGI [43] of the same molecule?
A: > 100 µM

Q: And the TGI [44]?
A: > 100 µM

Q: What about the TGI [45] of the same molecule?
A: > 100 µM

Q: What about the TGI [46] of the same molecule?
A: > 100 µM

Q: What about the TGI [47] of the same molecule?
A: > 100 µM

Q: What about the TGI [48] of the same molecule?
A: > 100 µM

Q: What about the TGI [49] of the same molecule?
A: > 100 µM

Q: And the TGI [50]?
A: > 100 µM

Q: What about the TGI [51] of the same molecule?
A: > 100 µM

Q: What about the TGI [52] of the same molecule?
A: > 100 µM

Q: For `NS(=O)(=O)c1nnc(NC(=O)C23CC4CC(CC(C4)C2)C3)s1`, which TGI [1] is on record?
A: > 100 µM

Q: What about the TGI [2] of the same molecule?
A: > 100 µM

Q: What about the TGI [53] of the same molecule?
A: > 100 µM

Q: And the TGI [3]?
A: > 100 µM

Q: And the TGI [4]?
A: > 100 µM

Q: What about the TGI [5] of the same molecule?
A: > 100 µM

Q: And the TGI [6]?
A: > 100 µM

Q: And the TGI [7]?
A: > 100 µM

Q: What about the TGI [8] of the same molecule?
A: > 100 µM

Q: What about the TGI [9] of the same molecule?
A: > 100 µM

Q: What about the TGI [54] of the same molecule?
A: > 100 µM

Q: What about the TGI [10] of the same molecule?
A: > 100 µM

Q: And the TGI [11]?
A: > 100 µM

Q: And the TGI [12]?
A: > 100 µM

Q: And the TGI [55]?
A: > 100 µM

Q: And the TGI [56]?
A: > 100 µM

Q: What about the TGI [13] of the same molecule?
A: > 100 µM

Q: And the TGI [14]?
A: > 100 µM

Q: And the TGI [15]?
A: > 100 µM

Q: What about the TGI [16] of the same molecule?
A: > 100 µM

Q: What about the TGI [18] of the same molecule?
A: > 100 µM

Q: What about the TGI [19] of the same molecule?
A: > 100 µM

Q: And the TGI [20]?
A: > 100 µM

Q: What about the TGI [21] of the same molecule?
A: > 100 µM

Q: And the TGI [22]?
A: > 100 µM

Q: And the TGI [23]?
A: > 100 µM

Q: What about the TGI [24] of the same molecule?
A: > 100 µM

Q: And the TGI [26]?
A: > 100 µM

Q: What about the TGI [27] of the same molecule?
A: > 100 µM

Q: And the TGI [28]?
A: > 100 µM

Q: And the TGI [29]?
A: > 100 µM

Q: And the TGI [30]?
A: > 100 µM

Q: And the TGI [31]?
A: > 100 µM

Q: And the TGI [32]?
A: > 100 µM

Q: What about the TGI [33] of the same molecule?
A: > 100 µM

Q: What about the TGI [34] of the same molecule?
A: > 100 µM

Q: What about the TGI [35] of the same molecule?
A: > 100 µM

Q: And the TGI [36]?
A: > 100 µM

Q: What about the TGI [37] of the same molecule?
A: > 100 µM

Q: And the TGI [38]?
A: > 100 µM

Q: And the TGI [39]?
A: > 100 µM

Q: What about the TGI [40] of the same molecule?
A: > 100 µM

Q: And the TGI [41]?
A: > 100 µM

Q: And the TGI [42]?
A: 3.74 µM

Q: What about the TGI [57] of the same molecule?
A: > 100 µM

Q: And the TGI [44]?
A: > 100 µM

Q: And the TGI [45]?
A: > 100 µM

Q: And the TGI [46]?
A: > 100 µM

Q: What about the TGI [47] of the same molecule?
A: > 100 µM

Q: And the TGI [48]?
A: > 100 µM

Q: And the TGI [49]?
A: > 100 µM

Q: And the TGI [50]?
A: > 100 µM

Q: What about the TGI [52] of the same molecule?
A: > 100 µM
